From article PMC6466588, “Characterization and Antimicrobial Activity of Amphiphilic Peptide AP3 and Derivative Sequences” (Antibiotics, 2019)
No end group written: not given here.

Key:
E. coli = assay type: cell-based; details: 18 h
Method: (§1) The antibacterial activities of each peptide were determined against various Gram-negative and Gram-positive bacteria using minimum inhibitory concentration (MIC) assays. The MIC is defined as the lowest concentration of peptide that prevents growth of bacteria using the optical density at 600 nm under standard growth conditions.
(§2) Bacteria were streaked from frozen stocks onto Difco LB-miller agar (BD, Franklin Lakes, NJ, USA) plates (E. coli MG1655 ATCC 47076, E. coli D31 [34], S. aureus ATCC25923, P. aeruginosa ATCC10145, K. pneumoniae 700603). Streaked plates were grown overnight at 37 °C and subsequently stored at 4 °C.
(§3) To prepare overnight cultures, a single colony of each bacterial strain was added to LB broth (Difco) in sterile culture tubes. Tubes were placed in the shaking incubator at 37 °C overnight to allow for sufficient bacterial growth. After incubation, dilutions of the overnight culture were made in LB (1:100) or Muller-Hinton broth (Criterion) (1:250) for MIC assay protocols (Hardy Diagnostics, Santa Maria, CA, USA).
(§4) Minimal inhibitory concentrations (MIC) were determined for each peptide The MIC assay was set up by adding 10 µL of the peptide stock solutions to wells of a sterile 96-well plate to which […] of diluted bacterial culture was added. The final bacterial load was ~5.0 × 10^5 cfu/mL as calculated from the Optical Density^@ 600 nm (OD600) measurements of a log-phase culture. The assay plate was incubated at 37 °C for 18 h. Bacterial growth was assayed by absorbance at OD600 using Multiskan microplate reader (Thermo Fisher, Waltham, MA, USA). […] All MIC values are averages of at least triplicate samples.

K. pneumoniae 700603 = assay type: cell-based; details: 700603, 18 h
Method: as §1, §2, §3, §4

S. aureus ATCC25923 = assay type: cell-based; details: ATCC25923, 18 h
Method: as §1, §2, §3, §4

HEK-293 cells = assay: Mammalian cell viability, MTT assay; assay type: cell-based, Human; details: HEK-293, MTT, 24 h, 37 °C, triplicate
Method: The cells were treated with five different concentrations of each peptide ranging from 0.0015 µM to 15 µM for a total of 24 h before viability measurements were performed.
Figure 6 Mammalian cell viability assay—Effects of AP3 peptides on HEK-293 cell viability assayed by MTT metabolic breakdown. A standard density of HEK-293 cells was incubated with serially diluted peptides for 24 h at 37 °C before the assay was performed. Percent viability was normalized to MTT breakdown observed in untreated controls. Color coding of the graph is AP3 (red), AP3K (blue), APX (purple), APX-17 (black), and APX-12 (green). All data represent the average of at least three replicates and error bars represent the standard deviation.
Cellular toxicity of specific peptides was determined by MTT ((3-(4,5-Dimethylthiazol-2-yl)-2,5-Diphenyltetrazolium Bromide)) assay. Human embryonic kidney (HEK) 293 cells with a lenti-CRE luciferase reporter gene were seeded in 96-well plates at a density of 1.5 × 10^4 cells per well and incubated with 5% CO2 at 37 °C for 24 h. Then, cells were treated with appropriate concentrations of peptides (0.0015–15 µM) and control for 24 h. After treatment for 24 h, 10 µL of MTT solution (5 mg MTT/mL PBS) was added to all wells and incubated for 4 h. Then, DMSO was added as a solubilizing agent and the absorbance was recorded at 540 nm. Each peptide concentration was performed in triplicate.

P. aeruginosa ATCC10145 = assay type: cell-based; details: ATCC10145, 18 h
Method: as §1, §2, §3, §4

| Substance | MIC (E. coli) [µM] | MIC (K. pneumoniae 700603) [µM] | MIC (S. aureus ATCC25923) [µM] | cytotoxicity, dead cells (HEK-293 cells; 1.5 µM peptide) | MIC (P. aeruginosa ATCC10145) [µM] | cytotoxicity, dead cells (HEK-293 cells; 15 µM peptide) |
| --- | --- | --- | --- | --- | --- | --- |
| GWRTLLKKAEVKTVGKLALKHYL-NH2 [AP3] | 8.3 | 4.15 | 4.15 | ~ 18% | – | – |
| GWKTLLKKAEVKTVGKLALKHYL-NH2 [AP3K] | 9.3 | >9.30 | 2.32 | ~ 18% | 0.29 | ~ 40% |
| GYRTLLKKAEVKTVGKLALKHWL-NH2 [APX] | >15.0 | >15.0 | 15 | – | 15 | – |
| KTVGKLALKHWL-NH2 [APX-12] | >15.0 | >15.0 | >15.0 | – | >15.0 | – |
| KKAEVKTVGKLALKHWL-NH2 [APX-17] | >8.00 | >8.00 | >8.00 | – | >8.00 | – |
